Laboratory results: US20260042764A1, “COMPOSITIONS AND METHODS FOR INHIBITION OF KRAS” (TheRas, Inc., priority 2022, published 2026)

Tests used:
GP2d cells (KRAS G12D) = assay: Cell-based pERK HTRF assay in GP2d cell (Biological Example 2); details: GP2d, GP2d (KRAS G12D) cells
How it was run: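 Phospho-ERK is measured by HTRF following a 60 min compound exposure at 0.25% DMSO, with a 9-point half-log curve topping at 1 μM or 100 nM.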

[1] = molecular target: T1, Avi-KRAS G12D (2-169) GTP/RAF1 RBD-3xFLAG (51-131) (Homo sapiens, UniProt P01116, G12D); assay: Raf1-KRAS G12D-GTP disruption HTRF assay (Biological Example 3); format: binding; details: KRAS G12D, GTP-loaded
T1 construct: Avi-KRAS G12D (2-169)
How it was run: (§1)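 50 nM Avi-KRAS (2-169) GTP/RAF1 RBD complex; 75 nM RBD-Avi; pH 7.5 Tris buffer, 10% DMSO; cpd 30 μM top, 3x, 10 pts; 1 h RT, 700 rpm; HTRF, % of DMSO.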

[2] = molecular target: T2, Avi-KRAS G12C (2-169) GTP/RAF1 RBD-3xFLAG (51-131) (Homo sapiens, UniProt P01116, G12C); assay: Raf1-KRAS G12C-GTP disruption HTRF assay (Biological Example 3); format: binding; details: KRAS G12C, GTP-loaded
T2 construct: Avi-KRAS G12C (2-169)
How it was run: as §1

[3] = molecular target: T3, Avi-KRAS G12V (2-169) GTP/RAF1 RBD-3xFLAG (51-131) (Homo sapiens, UniProt P01116, G12V); assay: Raf1-KRAS G12V-GTP disruption HTRF assay (Biological Example 3); format: binding; details: KRAS G12V, GTP-loaded
T3 construct: Avi-KRAS G12V (2-169)
How it was run: as §1

[4] = molecular target: T4, Avi-KRAS WT (2-169) GTP/RAF1 RBD-3xFLAG (51-131) (Homo sapiens, UniProt P01116); assay: Raf1-KRAS WT-GTP disruption HTRF assay (Biological Example 3); format: binding; details: KRAS WT, GTP-loaded
T4 construct: Avi-KRAS WT (2-169)
How it was run: as §1

SW620 cells (KRAS G12V) = assay: Cell-based pERK HTRF assay in SW620 cell (Biological Example 4); details: Homo sapiens, SW-620, SW620 (KRAS G12V) cells
How it was run: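 This assay measures inhibition of ERK phosphorylation downstream of KRAS G12V in intact SW620 cells. Compounds are applied for 4 h over nine half-log concentrations starting at 1 μM, and pERK is quantified by HTRF.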

T3 sequence (P01116 2-169 isoform P01116-2 G12V): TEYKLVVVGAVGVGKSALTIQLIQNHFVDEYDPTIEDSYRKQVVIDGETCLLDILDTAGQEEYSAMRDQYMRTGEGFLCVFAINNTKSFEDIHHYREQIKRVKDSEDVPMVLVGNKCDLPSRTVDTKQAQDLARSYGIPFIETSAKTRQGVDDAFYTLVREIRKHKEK
T4 sequence (P01116 2-169 isoform P01116-2): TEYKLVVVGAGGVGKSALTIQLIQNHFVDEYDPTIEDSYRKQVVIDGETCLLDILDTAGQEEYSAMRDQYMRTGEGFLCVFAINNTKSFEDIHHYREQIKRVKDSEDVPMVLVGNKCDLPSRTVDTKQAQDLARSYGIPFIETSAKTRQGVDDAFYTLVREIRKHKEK
T2 sequence (P01116 2-169 isoform P01116-2 G12C): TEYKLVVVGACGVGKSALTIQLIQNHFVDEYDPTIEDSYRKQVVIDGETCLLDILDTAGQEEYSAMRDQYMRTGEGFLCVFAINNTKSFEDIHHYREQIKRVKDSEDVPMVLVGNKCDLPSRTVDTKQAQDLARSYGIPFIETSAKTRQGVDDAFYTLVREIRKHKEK
T1 sequence (P01116 2-169 isoform P01116-2 G12D): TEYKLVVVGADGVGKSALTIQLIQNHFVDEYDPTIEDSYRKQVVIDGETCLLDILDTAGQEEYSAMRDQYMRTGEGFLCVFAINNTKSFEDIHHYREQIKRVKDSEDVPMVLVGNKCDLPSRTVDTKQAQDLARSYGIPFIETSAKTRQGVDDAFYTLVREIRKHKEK

SMILES | IC50 (GP2d cells (KRAS G12D)) | IC50 [1] | IC50 [2] | IC50 [3] | IC50 [4] | IC50 (SW620 cells (KRAS G12V))
CCN(c1nc(OC[C@@]23CCCN2C[C@H](F)C3)nc2c(F)c(-c3ccc(F)c4sc(N)c(C#N)c34)c(C(F)(F)F)cc12)[C@H]1CCN(C(=O)c2nccs2)C1 (atropisomer, axis not shown) [Compound 927] | < 100 nM | 100 to 1000 nM | 100 to 1000 nM | 100 to 1000 nM | 100 to 1000 nM | < 100 nM
CCN(c1nc(OC[C@@]23CCCN2C[C@H](F)C3)nc2c(F)c(-c3ccc(F)c4sc(N)c(C#N)c34)c(C(F)(F)F)cc12)[C@H]1C[C@@H](C)N(C(=O)OC2CC(OC)C2)C1 (stereo partly drawn) [Compound 895] | < 100 nM | 100 to 1000 nM | 100 to 1000 nM | 100 to 1000 nM | 1000 to 10000 nM | < 100 nM
CCN(c1nc(OC[C@@]23CCCN2C[C@H](F)C3)nc2c(F)c(-c3ccc(F)c4sc(N)c(C#N)c34)c(C(F)(F)F)cc12)[C@H]1CCN(C(=O)c2cncs2)C1 (atropisomer, axis not shown; (aS)) [Compound 906, 2-amino-4-((S)-4-(ethyl((S)-1-(thiazole-5-carbonyl)pyrrolidin-3-yl)amino)-8-fluoro-2-(((2R,7aS)-2-fluorotetrahydro-1H-pyrrolizin-7a(5H)-yl)methoxy)-6-(trifluoromethyl)quinazolin-7-yl)-7-fluorobenzo[b]thiophene-3-carbonitrile] | < 100 nM | 100 to 1000 nM | 100 to 1000 nM | 100 to 1000 nM | 100 to 1000 nM | < 100 nM
CN(Cc1cocn1)c1nc(OC[C@@]23CCCN2C[C@H](F)C3)nc2c(F)c(-c3ccc(F)c4sc(N)c(C#N)c34)c(C(F)(F)F)cc12 (atropisomer, axis not shown) [Compound 855] | < 100 nM | 100 to 1000 nM | 100 to 1000 nM | 100 to 1000 nM | 100 to 1000 nM | < 100 nM
CCN(c1nc(OC[C@@]23CCCN2C[C@H](F)C3)nc2c(F)c(-c3ccc(F)c4sc(N)c(C#N)c34)c(C(F)(F)F)cc12)[C@H]1CCN(C(=O)c2coc(C)n2)[C@@H]1C (atropisomer, axis not shown) [Compound 899] | < 100 nM | 100 to 1000 nM | 100 to 1000 nM | 100 to 1000 nM | 100 to 1000 nM | < 100 nM
CCN(c1nc(OC[C@@]23CCCN2C[C@H](F)C3)nc2c(F)c(-c3ccc(F)c4sc(N)c(C#N)c34)c(C(F)(F)F)cc12)[C@H]1C[C@H](COC)N(C(=O)[C@H]2C[C@H]2F)C1 (atropisomer, axis not shown) [Compound 847] | < 100 nM | 100 to 1000 nM | 100 to 1000 nM | 100 to 1000 nM | 100 to 1000 nM | < 100 nM
CN(Cc1cccc(=O)n1C)c1nc(OC[C@@]23CCCN2C[C@H](F)C3)nc2c(F)c(-c3ccc(F)c4sc(N)c(C#N)c34)c(C(F)(F)F)cc12 (atropisomer, axis not shown) [Compound 879] | < 100 nM | 1000 to 10000 nM | > 10000 nM | > 10000 nM | > 10000 nM | < 100 nM
CCN(c1nc(OC[C@@]23CCCN2C[C@H](F)C3)nc2c(F)c(-c3ccc(F)c4sc(N)c(C#N)c34)c(C(F)(F)F)cc12)[C@H]1C[C@H]2CCCC(=O)N2C1 (atropisomer, axis not shown; (aR)) [Compound 662, 2-amino-4-((S)-4-(ethyl((2S,8aR)-5-oxooctahydroindolizin-2-yl)amino)-8-fluoro-2-(((2R,7aS)-2-fluorotetrahydro-1H-pyrrolizin-7a(5H)-yl)methoxy)-6-(trifluoromethyl)quinazolin-7-yl)-7-fluorobenzo[b]thiophene-3-carbonitrile] | < 100 nM | ≤ 100 nM | ≤ 100 nM | ≤ 100 nM | 100 to 1000 nM | < 100 nM
CCN(c1nc(OC[C@@]23CCCN2C[C@H](F)C3)nc2c(F)c(-c3ccc(F)c4sc(N)c(C#N)c34)c(C(F)(F)F)cc12)[C@@H]1CC[C@@H](C(=O)N(C)C)C1 (atropisomer, axis not shown) [Compound 827] | < 100 nM | 1000 to 10000 nM | 1000 to 10000 nM | 1000 to 10000 nM | 1000 to 10000 nM | < 100 nM
CCN(c1nc(OC[C@@]23CCCN2C[C@H](F)C3)nc2c(F)c(-c3ccc(F)c4sc(N)c(C#N)c34)c(C(F)(F)F)cc12)[C@H]1CCN(C(=O)[C@@H]2C[C@H]2F)[C@@H]1C (atropisomer, axis not shown) [Compound 892] | < 100 nM | 100 to 1000 nM | 100 to 1000 nM | 100 to 1000 nM | 100 to 1000 nM | < 100 nM
CCN(c1nc(OC[C@@]23CCCN2C[C@H](F)C3)nc2c(F)c(-c3ccc(F)c4sc(N)c(C#N)c34)c(C(F)(F)F)cc12)[C@H]1C[C@@H](C)N(C(=O)C2CC2(F)F)C1 (stereo partly drawn) [Compound 877] | < 100 nM | 100 to 1000 nM | 1000 to 10000 nM | 1000 to 10000 nM | 1000 to 10000 nM | < 100 nM
CCN(c1nc(OC[C@@]23CCCN2C[C@H](F)C3)nc2c(F)c(-c3ccc(F)c4sc(N)c(C#N)c34)c(C(F)(F)F)cc12)[C@H]1CCN(C(=O)C(CF)CF)C1 (atropisomer, axis not shown) [Compound 857] | < 100 nM | 100 to 1000 nM | 100 to 1000 nM | 100 to 1000 nM | 100 to 1000 nM | < 100 nM

More lines, now with the values ahead:

IC50 (GP2d cells (KRAS G12D)) | IC50 [1] | IC50 [2] | IC50 [3] | IC50 [4] | IC50 (SW620 cells (KRAS G12V)) | SMILES
< 100 nM | 100 to 1000 nM | ≤ 100 nM | 100 to 1000 nM | 1000 to 10000 nM | < 100 nM | CCN(c1nc(OC[C@@]23CCCN2C[C@H](F)C3)nc2c(F)c(-c3ccc(F)c4sc(N)c(C#N)c34)c(C(F)(F)F)cc12)[C@H]1CCN(C(=O)OCC2COC2)[C@@H]1C (atropisomer, axis not shown) [Compound 835]
< 100 nM | 100 to 1000 nM | 100 to 1000 nM | 100 to 1000 nM | 100 to 1000 nM | < 100 nM | CCN(c1nc(OC[C@@]23CCCN2C[C@H](F)C3)nc2c(F)c(-c3ccc(F)c4sc(N)c(C#N)c34)c(C(F)(F)F)cc12)[C@H]1CCCOC1 (atropisomer, axis not shown) [Compound 965]
< 100 nM | > 10000 nM | > 10000 nM | > 10000 nM | > 10000 nM | < 100 nM | N#Cc1c(N)sc2c(F)ccc(-c3c(C(F)(F)F)cc4c(N5CCC(c6cccnc6)C5)nc(OC[C@@]56CCCN5C[C@H](F)C6)nc4c3F)c12 (stereo partly drawn) [Compound 943]
< 100 nM | 100 to 1000 nM | 100 to 1000 nM | 100 to 1000 nM | 100 to 1000 nM | < 100 nM | CCN(c1nc(OC[C@@]23CCCN2C[C@H](F)C3)nc2c(F)c(-c3ccc(F)c4sc(N)c(C#N)c34)c(C(F)(F)F)cc12)[C@H]1C[C@@H]2CCN(C)C(=O)N2C1 (atropisomer, axis not shown) [Compound 667]
< 100 nM | 100 to 1000 nM | 100 to 1000 nM | 100 to 1000 nM | 100 to 1000 nM | < 100 nM | CCN(c1nc(OC[C@@]23CCCN2C[C@H](F)C3)nc2c(F)c(-c3ccc(F)c4sc(N)c(C#N)c34)c(C(F)(F)F)cc12)[C@H]1CCN(C(=O)[C@H]2C[C@H](F)C2)C1 (atropisomer, axis not shown) [Compound 846]
< 100 nM | 1000 to 10000 nM | 1000 to 10000 nM | 1000 to 10000 nM | 100 to 1000 nM | < 100 nM | CCN(c1nc(OC[C@@]23CCCN2C[C@H](F)C3)nc2c(F)c(-c3ccc(F)c4sc(N)c(C#N)c34)c(C(F)(F)F)cc12)[C@H]1CC[C@@](C)(C(=O)N(C)C)C1 (atropisomer, axis not shown) [Compound 873]
< 100 nM | 100 to 1000 nM | 100 to 1000 nM | 100 to 1000 nM | 100 to 1000 nM | < 100 nM | CCN(c1nc(OC[C@@]23CCCN2C[C@H](F)C3)nc2c(F)c(-c3ccc(F)c4sc(N)c(C#N)c34)c(C(F)(F)F)cc12)[C@H]1C[C@H](COC)N(C(=O)[C@@H]2C[C@H]2F)C1 (atropisomer, axis not shown) [Compound 848]
< 100 nM | 1000 to 10000 nM | 100 to 1000 nM | 100 to 1000 nM | 1000 to 10000 nM | < 100 nM | CCN(c1nc(OC[C@@]23CCCN2C[C@H](F)C3)nc2c(F)c(-c3ccc(F)c4sc(N)c(C#N)c34)c(C(F)(F)F)cc12)[C@H]1C[C@H](COC)N(C(=O)N2CC(F)C2)C1 [Compound 875]
